# Laboratory results: patent US9365534B2, “Arylated camphenes, processes for their preparation and uses thereof” (Yissum Research Development Company of the Hebrew …, priority 2009, dated 2016)
# Like-named read-outs stand apart in the source and are kept apart here.
# Columns and labels:
# [1] = target: T1, human CB1 receptor (Homo sapiens (Human), UniProt P21554); assay: Membrane competition binding assay with [3H]-CP 55,940, CHO-CB1 membranes; settings: read-out: Competition Binding Assay CB1 Receptor Ki
# T1 sequence (P21554 whole entry): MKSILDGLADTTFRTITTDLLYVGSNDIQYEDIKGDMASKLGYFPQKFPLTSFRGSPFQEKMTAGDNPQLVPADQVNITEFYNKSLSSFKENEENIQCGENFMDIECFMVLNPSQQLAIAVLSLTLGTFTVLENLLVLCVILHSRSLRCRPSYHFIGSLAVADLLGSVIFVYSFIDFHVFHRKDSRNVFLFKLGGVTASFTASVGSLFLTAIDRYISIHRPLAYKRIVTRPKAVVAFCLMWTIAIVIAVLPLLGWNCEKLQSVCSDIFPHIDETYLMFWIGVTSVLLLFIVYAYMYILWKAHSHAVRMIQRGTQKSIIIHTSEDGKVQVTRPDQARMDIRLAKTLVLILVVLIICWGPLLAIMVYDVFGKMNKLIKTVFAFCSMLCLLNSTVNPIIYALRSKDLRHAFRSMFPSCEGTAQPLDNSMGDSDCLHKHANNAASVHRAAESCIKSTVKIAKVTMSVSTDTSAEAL
# Excerpt: (§1) The cDNA clones for human HA-tagged CB1 and CB2 receptors were obtained from the Missouri S&T cDNA Resource Center (www.cdna.org) in cloning vector pcDNA3.1+. The vector containing the human CB2 receptor was transfected directly into CHO-KI cells obtained from ATCC. The HA-tagged human CB1 receptor sequence was subcloned into the pef4-V5-HisA vector with Kpn1 and Pme1 restriction enzymes and subsequently transfected into CHO-K1 cells. Cells were clonally isolated by limited dilution and screened by immunocytochemistry for expression of the HA tag.
# (§2) Cells were maintained in DMEM/F12 media supplemented with 10% fetal bovine serum (FBS), 100 units/ml penicillin and 100 μg/ml streptomycin and 2 mM L-glutamine. Transfected cell lines were maintained with additional 150 ug/ml zeocin for pEF HA-CB1 transfected cells and 500 ug/ml G-418 for pcDNA HA-CB2 transfected cells (all reagents obtained from Invitrogen).
# (§3) Cells were grown to confluence and harvested in ice cold phosphate buffered saline with 5 mM EDTA. Cells were spun at 200×g for 10 min and frozen at −80° C. until required. Cell pellets were thawed with cold 0.32 M sucrose and homogenised with a glass homogeniser. The homogenate was spun at 1000×g for 10 min at 4° C. and the supernatant spun in a Sorvall ultracentrifuge for 30 min at 100,000×g. The pellet was then washed in ice cold water and re-spun twice more. The final pellet was resuspended in 50 mM Tris pH 7.5, 0.5 mM EDTA. Protein concentration was determined using the Dc protein assay kit (BioRad, Hercules, Calif., USA).
# (§4) Membranes (5-10 μg) were incubated with radioligand and a range of concentrations of test compounds in binding buffer (50 mM Tris pH 7.4, 5 mM MgCl2, 1 mM EDTA) with 0.5% (w/v) bovine serum albumin (BSA) (ICP Bio, New Zealand), at 30° C. for 60 min. Stock solutions of putative cannabinoid ligands were prepared in dimethyl sulfoxide to a concentration of 10 mM. Six different final concentrations of compounds were used ranging from 50 μM to 0.1 nM. […] Assays were terminated by addition of 2 ml ice cold binding buffer and filtration through GF/C filters (Whatman) pre-soaked in cold binding buffer, followed by two washes in the same buffer.
# (§5) Radioactivity was determined by incubation of filters with Irgasafe scintillation fluid (PerkinElmer) and scintillation counting in a Wallac Trilux using Microbeta Trilux software. Data was analysed using the Prism 4.02 programme (GraphPad Software, San Deigo, Calif., USA).
# (§6) All data was analyzed using Prism 4.02. For binding data the Ki was determined from IC50 values derived from competition binding data fitted with one site competition non-linear regression analysis by Prism 4.02 using the Kd values reported above.
# [2] = target: T2, human CB2 receptor (Homo sapiens (Human), UniProt P34972); assay: Membrane competition binding assay with [3H]-CP 55,940, CHO-CB2 membranes
# Excerpt: as §1, §2, §3, §4, §5, §6
# [3] = target: T1, human CB1 receptor; assay: cell-based; settings: for IC50: whole cells expressing CB1, 50 μM forskolin, read-out: cAMP Assay CB1 Receptor IC50
# Excerpt: as §1, §2
# (§7) Cells were seeded at a density of 10,000 cells per well in poly-L-lysine treated 96-well culture plates (BD Biosciences). The following day wells were incubated with 40 μl DMEM/F12 containing 0.5% (w/v) BSA and 0.5 mM 3-isobutyl-1-methylxanthine (Sigma-Aldrich) for 30 minutes prior to 15 min stimulation with 50 μM forskolin (Tocris Cookson) and varying concentrations of indicated compounds at 37° C., 5% CO2. Assays were stopped by removal of media and addition of 100% ice cold ethanol. Plates were then frozen for a minimum of two hours before complete evaporation of ethanol. The well contents were then reconstituted in 50 μl cAMP assay buffer (20 mM HEPES pH 7.5 and 5 mM EDTA). Half of the reconstituted sample was transferred to round bottom 96-well plates (Greiner Bio-One GmbH) with 50 μl 0.01% w/v PKA (cAMP dependent protein kinase (Sigma-Aldrich) in 1 mM Na citrate pH 6.5 with 2 mM dithiothreitol) and 25 μl [^3H]-cAMP (at 22 nM in cAMP assay buffer) (GE Healthcare, Life Sciences). This was allowed to equilibrate for 3-18 hours. Following this a charcoal slurry (5% (w/v) activated charcoal and 0.2% (w/v) BSA in cAMP assay buffer) was added to the samples and the plates centrifuged at 3000×g, 4° C. for 5 min. Radioactive counts within the supernatant were then determined as described for competition binding assays.
# (§8) pIC50 values were determined from cAMP assays by fitting a sigmoidal concentration response curve using Prism 4.02.
# [4] = target: T2, human CB2 receptor; assay: cell-based
# Excerpt: as §1, §2, §7, §8
# [5] = CHO-CB2 cellular membranes, 2.5 nM [3H]-CP 55,940
# [6] = whole cells expressing CB2, 50 μM forskolin; read-out: cAMP Assay CB2 Receptor IC50
# [7] = CHO-CB1 cellular membranes, 2.5 nM [3H]-CP 55,940
# [8] = CHO, read-out: cAMP Assay CB2 Receptor Emax
# [9] = read-out: cAMP Assay CB2 Receptor IC50
smiles,measurement,setting,value
"CCCCCCC(C)(C)c1cc(O)c2c(c1)OC(C)(C)[C@@H]1CC=C(CO)C[C@@H]21 [HU-210, 1,1-Dimethylheptyl-11-hydroxy-tetrahydrocannabinol, reference compound]",Ki,[1],0.00294 µM
"CCCCCCC(C)(C)c1cc(OC)c(C2=C[C@]3(C)CC[C@H]2C3(C)C)c(OC)c1 [HU-917, (1S,4S)-3-(2,6-dimethoxy-4-(2-methyloctan-2-yl)phenyl)-1,7,7-trimethylbicyclo[2.2.1]hept-2-ene]",Ki,[2]; [5],> 50 µM
same,IC50,[3],> 50 µM
same,IC50,[4]; [6],> 50 µM
same,Ki,[1]; [7],> 50 µM
"CCCCCc1cc(OC)c(C2=C[C@@H]3CC[C@@]2(C(=O)O)C3(C)C)c(OC)c1 [HU-973, (1R,4S)-2-(2,6-dimethoxy-4-pentylphenyl)-7,7-dimethylbicyclo[2.2.1]hept-2-ene-1-carboxylic acid]",Ki,[2],1.15 µM
same,IC50,[3],> 50 µM
same,Emax,[4]; [8],40 ± 6%
same,IC50,[4]; [9],2.09 µM
same,Ki,[1]; [7],> 50 µM
"CCCCCc1cc(OC)c(C2C(O)[C@]3(C)CC[C@H]2C3(C)C)c(OC)c1 (stereo partly drawn) [HU-938, (1R,4R)-3-(2,6-dimethoxy-4-pentylphenyl)-1,7,7-trimethylbicyclo[2.2.1]heptan-2-ol]",Ki,[2]; [5],7.91 µM
same,IC50,[3],> 50 µM
same,IC50,[4]; [6],> 50 µM
same,Ki,[1]; [7],> 50 µM
"CCCCCc1cc(OC)c(C2=C[C@H]3CC[C@]2(C(=O)O)C3(C)C)c(OC)c1 [HU-974, (1S,4R)-2-(2,6-dimethoxy-4-pentylphenyl)-7,7-dimethylbicyclo[2.2.1]hept-2-ene-1-carboxylic acid]",Ki,[2],> 10 µM
same,IC50,[3],> 50 µM
same,IC50,[4],> 50 µM
same,Ki,[1]; [7],> 50 µM
"CCCCCCC(C)(C)c1cc(OC)c(C2=C[C@H]3CC[C@]2(C(=O)OC)C3(C)C)c(OC)c1 [HU-912, (1S,4R)-methyl-2-(2,6-dimethoxy-4-(2-methyloctan-2-yl)phenyl)-7,7-dimethylbicyclo[2.2.1]hept-2-ene-1-carboxylate]",Ki,[2]; [5],0.0771 µM
same,Emax,"[3]; CHO, percentage of maximal response of HU-210, mean ± SEM, read-out: cAMP Assay CB1 Receptor Emax",112 ± 8%
same,IC50,[3],3.37 µM
same,Emax,[4]; CHO; read-out: cAMP Assay CB2 Receptor Emax,107 ± 4%
same,IC50,[4]; [6],0.239 µM
same,Ki,[1]; [7],> 10 µM
"CCCCCCC(C)(C)c1cc(OC)c(C2=C[C@@]3(C)CC[C@@H]2C3(C)C)c(OC)c1 [HU-918, (1R,4R)-3-(2,6-dimethoxy-4-(2-methyloctan-2-yl)phenyl)-1,7,7-trimethylbicyclo[2.2.1]hept-2-ene]",Ki,[2]; [5],> 50 µM
same,IC50,[3],> 50 µM
same,IC50,[4]; [6],> 50 µM
same,Ki,[1]; [7],> 50 µM
"CCCCCCC(C)(C)c1cc(OC)c(C2=C[C@H]3CC[C@]2(C)C3(C)C)c(OC)c1 [HU-907, (1R,4R)-2-(2,6-dimethoxy-4-(2-methyloctan-2-yl)phenyl)-1,7,7-trimethylbicyclo[2.2.1]hept-2-ene]",Ki,[2]; [5],2.51 µM
same,IC50,[3],> 50 µM
same,IC50,[4]; [6],> 50 µM
same,Ki,[1]; [7],> 50 µM
"CCCCCc1cc(OC)c(C2C(=O)[C@]3(C)CC[C@H]2C3(C)C)c(OC)c1 (stereo partly drawn) [HU-936, (1R,4R)-3-(2,6-dimethoxy-4-pentylphenyl)-1,7,7-trimethylbicyclo[2.2.1]heptan-2-one]",Ki,[2]; [5],1.72 µM
same,IC50,[3],> 50 µM
same,IC50,[4]; [6],> 50 µM
same,Ki,[1]; [7],> 50 µM
"CCCCCc1cc(OC)c(C2=C[C@H]3CC[C@]2(CO)C3(C)C)c(OC)c1 [HU-970, (1S,4R)-(2-(2,6-dimethoxy-4-pentylphenyl)-7,7-dimethylbicyclo[2.2.1]hept-2-en-1-yl)methanol]",Ki,[2],1.27 µM
same,IC50,[3],> 50 µM
same,Emax,[4]; [8],38 ± 2%
same,IC50,[4]; [9],1.15 µM
same,Ki,[1]; [7],> 50 µM
"CCCCCc1cc(OC)c(C2=C[C@@H]3CC[C@@]2(C(=O)OC)C3(C)C)c(OC)c1 [HU-971, (1R,4S)-methyl-2-(2,6-dimethoxy-4-pentylphenyl)-7,7-dimethylbicyclo[2.2.1]hept-2-ene-1-carboxylate]",Ki,[2],0.704 µM
same,IC50,[3],> 50 µM
same,Emax,[4]; [8],31 ± 4%
same,IC50,[4]; [9],1.53 µM
same,Ki,[1]; [7],> 50 µM
"CCCCCCC(C)(C)c1cc(OC)c(C2=C[C@@H]3CC[C@@]2(C)C3(C)C)c(OC)c1 [HU-908, (1S,4S)-2-(2,6-dimethoxy-4-(2-methyloctan-2-yl)phenyl)-1,7,7-trimethylbicyclo[2.2.1]hept-2-ene]",Ki,[2]; [5],> 50 µM
same,IC50,[3],> 50 µM
same,IC50,[4]; [6],> 50 µM
same,Ki,[1]; [7],> 50 µM
